# Measured values taken from patent US5604095A, “Unsymmetrically linked bisnaphthalimides as antitumor agents” (Cancer Therapy & Research Center, priority 1994, dated 1997).
# Where two headings read alike, the source gives them in different places.
# What was measured:
# [1] = system: DNA; experiment: Ethidium bromide displacement assay, DNA binding and AT/GC selectivity; settings: for Ratio (AT/GC): FI50 poly(dA.dT) / FI50 poly(dG.dC)
# Description: (§1) Stock Solutions. A 10X Binding solution was prepared by combining 0.93 ml of an aqueous NaCl solution (5M), 2.0 ml of an aqueous Tris HCl (500 mM) solution, 0.1 ml of an EDTA solution (500 mM) and 46.97 ml of water. The resultant solution was 93 mM in NaCl, 20 mM in Tris HCl, and 1 mM in EDTA. Stock DNA solution were prepared as follows: Poly (dG.dC)-(dG.dC) (ε254=8.4/mM; 27-7910-02), poly (dA.dT)-(dA.dT) (ε262=6.6/mM; 27-7870-02), and lambda DNA (δ260-7.0/mM; 27-4111-01) were purchased from Pharmacia. Solutions were prepared by resuspending either poly (dG.dC)-(dG.dC) or poly (dA.dT)-(dA.dT)in 1 ml of 10X DNA Binding Solution. Lambda DNA is already in solution as purchased.
# (§2) Determination of concentration of the stock DNA solutions. Poly (dG.dC) - (dG.dC), poly (dA.dt) - (dA.dt) and lambda DNA concentrations were determined as follows: 980 μl of 10X DNA Binding Solution was pipetted into a 1 ml cuvette. A blank was run on the UV spectrophotometer. 20 μl of the DNA stock of unknown concentration was then added into the cuvette. The sample was then scanned between 210 nm to 500 nm and the absorbance recorded at 254 nm for poly (dG.dC)-(dG.dC), at 262 nm for poly (dA.dT)-(dA.dT) and at 260 nm for lambda DNA. The solution was transferred to a clean tube. This procedure was followed for three different solutions with the absorbance taken as the average of the three. The concentration of poly (dG.dC)-(dG.dC) stock was calculated to be A254 /8.4×1000 (in μM). The concentration of poly (dA.dT) - (dA.dT) stock was calculated to be A262 /6.6×1000 (in μM). The concentration of lambda DNA stock was calculated to be A260 /7.0×1000 (in μM).
# Ethidium Bromide Displacement Assay. The binding of the bis-naphthalimides to DNA and to synthetic polynucleotide duplexes was determined by an ethidium bromide displacement assay that measures the reduction of fluorescence when ethidium bromide is displaced from DNA (Baguley, 1981). The fluorescence intensity of a 3 ml solution containing 9.3 mM NaCl, 2 mM Tris-HCI (pH 7.0), 100 μM EDTA, 1 μM DNA (in nucleotides) and 1.26 μM ethidium bromide in a quartz cuvette was measured at the excitation (546 nm) and emission (600 nm) wavelengths on a Shimadzu RF5000U spectrofluorometer. Graded concentrations of agent were then added and the fluorescence intensity was measured. The concentration of compound required to reduce the fluorescence intensity by 50% of that of control (FI50) was determined. Therefore, the lower the FI50 the stronger the binding affinity a particular compound has for DNA. […]
# [2] = system: MCF-7 human breast carcinoma cell line; experiment: Growth inhibition (MTT), MCF-7 human breast carcinoma cell line; format: cell-based; settings: 6 days incubation
# Text: (§3) P388 murine leukemic cell line was obtained from the DCT Tumor Repository (National Cancer Institute, Frederick Cancer Research and Development, Frederick Md. 21702). HT29 Human Colon Carcinoma cell line was obtained from the American Type Culture Collection (12301 Parklawn Drive, Rockville, Md. 20852). B16 Melanoma cell line was obtained from DuPont Merck Pharmaceutical Company (Glenolden, Pa. 19036). MCF-7 Human Breast Carcinoma cell line was a gift from Dr. K. Osborne (Department of Medicine, The University of Texas Health Science Center at San Antonio, San Antonio, Tex. 78284). All cell lines were incubated at 37° C. in a humidified atmosphere of 5% CO2 -95% air. Murine B16 melanoma cell line was grown in RPMI 1640 medium supplemented with 10% heat-inactivated fetal bovine serum, 2 mM L-glutamine, 50 units/ml penicillin, 50 μg/ml streptomycin, 25 μg/ml gentamycin, 0.75% sodium bicarbonate, 10 mM HEPES buffer (pH 7.4), and 0.06 mg/ml AntiPPLO. Murine P388 leukemic and the human HT-29 colon adenocarcinoma cell lines were maintained in RPMI 1640 medium supplemented with 10% heat-inactivated fetal bovine serum. MCF-7M human breast adenocarcinoma was maintained in IMEM medium supplemented with 5% non heat-inactivated fetal bovine serum and 1 nM insulin.
# (§4) Exponentially growing cells (1-2×10^3 cells, unless specified otherwise) in 0.1 ml medium were seeded on day 0 in a 96-well microtiter plate. On day 1, 0.1 ml aliquots of medium containing graded concentrations of test compounds were added in duplicate to the cell plates. After incubation at 37° C. in a humidified incubator for 3 days (P388, B16) or 6 days (HT-29, MCF-7M), the plates were centrifuged briefly and 100 μl of the growth medium was removed. Cell cultures were incubated with 50 μl of 3-(4,5-dimethylthiazol-2-yl)-2,5-diphenyl-tetrazolium bromide [MTT, 1 mg/ml in Dulbecco's phosphate buffered saline (PBS)] for 4 hr at 37° C. The resulting purple formazan precipitate was solubilized with 200 μl of 0.04N HCl in isopropyl alcohol. Absorbance was monitored in a BioRad Model 3550 Microplate Reader at a test wavelength of 570 nm and a reference wavelength of 630 nm. The absorbance was transferred to a PC 486 computer. The IC50 values were determined by a computer program (EZ-ED50) that fit all of the data to the following four-parameterlogistic equation:
# (§5) Y=((Am -Ao)/(1+(X/IC50)^n))+Ao
# (§6) where Am is the absorbance of control cells, Ao is the absorbance of cells in the presence of highest agent concentration, Y is the observed absorbance, X is the agent concentration, IC50 is the concentration of agent that inhibits the cell growth by 50% of control cells (based on the absorbance) and n is the slope of the curve.
# [3] = biological target: poly-(dA.dT)-poly-(dA.dT); experiment: Ethidium bromide displacement assay, poly(dA.dT)-poly(dA.dT); format: binding; settings: 50% reduction of ethidium bromide fluorescence, pH 7.0, read-out: FI50 (the source's name)
# Description: as §1
# as §2, with “A blank was run on the UV spectrophotometer. 20 μl of the DNA stock of unknown concentration was then added into the cuvette.” left out, “The solution was transferred to a clean tube.” left out, “The concentration of lambda DNA stock was calculated to be A260 /7.0×1000 (in μM).” left out
# [4] = system: HT29 human colon carcinoma cell line; experiment: Growth inhibition (MTT), HT29 human colon carcinoma cell line; format: cell-based; settings: 6 days incubation
# Text: as §3, §4, §5, §6
# [5] = biological target: poly-(dG.dC)-poly-(dG.dC); experiment: Ethidium bromide displacement assay, poly(dG.dC)-poly(dG.dC); format: binding; settings: 50% reduction of ethidium bromide fluorescence, pH 7.0, read-out: FI50 (the source's name)
# Description: as §1
# as §2, with “A blank was run on the UV spectrophotometer. 20 μl of the DNA stock of unknown concentration was then added into the cuvette.” left out, “The solution was transferred to a clean tube.” left out, “The concentration of lambda DNA stock was calculated to be A260 /7.0×1000 (in μM).” left out
# [6] = system: B16 melanoma cell line; experiment: Growth inhibition (MTT), B16 melanoma cell line; format: cell-based, murine; settings: for IC50: B16, 3 days incubation, MTT
# Text: as §3, §4, §5, §6
# [7] = biological target: Lambda DNA; experiment: Ethidium bromide displacement assay, Lambda DNA; format: binding; settings: 50% reduction of ethidium bromide fluorescence, pH 7.0, read-out: FI50 (the source's name)
# Description: as §1
# as §2, with “A blank was run on the UV spectrophotometer. 20 μl of the DNA stock of unknown concentration was then added into the cuvette.” left out, “The solution was transferred to a clean tube.” left out, “The concentration of lambda DNA stock was calculated to be A260 /7.0×1000 (in μM).” left out
# [8] = system: B16 melanoma; experiment: In vivo tumor inhibiting activity vs. B16 melanoma in B6D2F1 mice
# Description: B16 Melanoma: B6D2F1 mice received i.p. inocula of B16 murine melanoma brei prepared from B16 tumors growing subcutaneously in mice (day 0). On day 1, rumored mice were treated with drugs or vehicle control; the route of drug administration and schedule were selected as appropriate for the study in question. If dosing information for agents was not available, the maximum tolerated dose (MTD) was determined in initial dose finding experiments in non-rumored mice. In a typical experiment, drugs were given at their MTD and 1/2 MTD doses i.p. on a daily×5 schedule.
# The mean survival times of all groups were calculated, and results were expressed as mean survival of treated mice/mean survival of control mice (T/C)×100%. A T/C value of 150 means that the mice in the treated group lived 50% longer than those of the control group; this is sometimes referred to as the increase in life space, or ILS value.
# Mice that survived for 60 days were considered long term survivors, or cures, in the B16 model. The universally accepted cut-off for activity in this model, which has been used for years by the National Cancer Institute, is T/C=125. Conventional use of B16 over the years has set the following levels of activity: T/C<125, no activity; T/C=125-150, weak activity; T/C=150-200, modest activity; T/C=200-300, high activity; T/C>300, with long term survivors, excellent, curative activity (Goldin et al., 1981).
# Statistics were performed on the data using primarily the log rank p-value test.
# [9] = system: P388 murine leukemic cell line; experiment: Growth inhibition (MTT), P388 murine leukemic cell line; format: cell-based; settings: Mus musculus, 72 h, 3 days incubation
# Text: P388 murine leukemic cell line was obtained from the DCT Tumor Repository (National Cancer Institute, Frederick Cancer Research and Development, Frederick Md. 21702). HT29 Human Colon Carcinoma cell line was obtained from the American Type Culture Collection (12301 Parklawn Drive, Rockville, Md. 20852). B16 Melanoma cell line was obtained from DuPont Merck Pharmaceutical Company (Glenolden, Pa. 19036). MCF-7 Human Breast Carcinoma cell line was a gift from Dr. K. Osborne (Department of Medicine, The University of Texas Health Science Center at San Antonio, San Antonio, Tex. 78284). All cell lines were incubated at 37° C. in a humidified atmosphere of 5% CO2 -95% air. […]
# Exponentially growing cells (1-2×10^3 cells, unless specified otherwise) in 0.1 ml medium were seeded on day 0 in a 96-well microtiter plate. […] Absorbance was monitored in a BioRad Model 3550 Microplate Reader at a test wavelength of 570 nm and a reference wavelength of 630 nm. The absorbance was transferred to a PC 486 computer. The IC50 values were determined by a computer program (EZ-ED50) that fit all of the data to the following four-parameterlogistic equation: […]
# [10] = system: human cancers; settings: literature; cited from earlier work
# [11] = system: topoisomerase II; settings: Hsiang et al., 1989; cited from earlier work
# [12] = cited from earlier work
structure (smiles),measurement,setting,value
"O=C1c2cccc3cc([N+](=O)[O-])cc(c23)C(=O)N1CCNCCOCCN1C(=O)c2cccc3cc([N+](=O)[O-])cc(c23)C1=O [Compound 5, 5-[2-(3-Nitronaphthalene-1,8-dicarboximido)ethylamino]-1-(3-nitronaphthalene-1,8-dicarboximido)-3-oxapentane]",Ratio (AT/GC),[1],73.5
same,IC50,[2],1 nM
same,IC50,[3],5220 nM
same,IC50,"[4]; Homo sapiens, HT-29, 144 h",3 nM
same,IC50,[5],71 nM
same,IC50,"[6]; Mus musculus, B16, 72 h",20 nM
same,IC50,[7],241 nM
O=C1c2cccc3cc([N+](=O)[O-])cc(c23)C(=O)N1CCNCCOCCN1C(=O)c2cccc3cc([N+](=O)[O-])cc(c23)C1=O [Compound 6],Displacement of ethidium bromide / decrease in fluorescence intensity,"[1]; FIG. 1, graded concentrations",dose-dependent decrease in fluorescence intensity
same,IC50,[2],2.6 nM
same,IC50,[4],3 nM
same,IC50,[6],11 nM
same,Wt. Ch. (Day 7),"[8]; 15 mg/kg, q.d. × 5, i.p.",-7.4%
same,activity against B16 melanoma compared with DMP840,[8]; comparator DMP840,more effective against B16 melanoma
same,"activity compared with DMP840, compounds 22 and 23, and cytoxan","[8]; comparators DMP840, 22, 23, cytoxan",more active
same,IC50,[9],35 nM
"O=C1c2cccc3cc([N+](=O)[O-])cc(c23)C(=O)N1CCOCCOCCN1C(=O)c2cccc3cc([N+](=O)[O-])cc(c23)C1=O [Compound 19, 5-[2-(3-Nitronaphthalene-1,8-dicarboximido)ethoxy]-1-(3-nitronaphthalene-1,8-dicarboximido)-3-oxapentane]",DNA binding (in words),[1],did not bind to DNA
same,Ratio (AT/GC),[1],1.7
same,in vitro anticancer activity against B16 melanoma (in words),[6]; B16 melanoma in vitro,potent anticancer activity against this melanoma type
"O=C1c2cccc3cc([N+](=O)[O-])cc(c23)C(=O)N1CCNCCNCCN1C(=O)c2cccc3cc([N+](=O)[O-])cc(c23)C1=O [Compound 22, 2,2'[1,2-ethanediylbis[imino(2,1-ethanediyl)]]-bis[5-nitro-1H-benz[de]isoquinoline-1,3-(2H)-dione] dimethanesulfonate]",IC50,[2],0.53 nM
same,IC50,[3],787 nM
same,IC50,"[4]; Homo sapiens, HT-29, 144 h",0.48 nM
same,IC50,[5],48 nM
same,IC50,[6],4.3 nM
same,IC50,[7],53 nM
same,Wt. Ch. (Day 7),"[8]; 2.5 mg/kg, q.d. × 5, i.p.",-0.17%
"O=C1c2cccc3cc([N+](=O)[O-])cc(c23)C(=O)N1CCNCCNCCN1C(=O)c2cccc3cc([N+](=O)[O-])cc(c23)C1=O [Compound 23, 2,2'[1,2-ethanediylbis[imino(2,1-ethanediyl)]]-bis[5-nitro-1H-benz[de]isoquinoline-1,3-(2H)-dione] monomethanesulfonate]",IC50,[2],1.39 nM
same,IC50,[4],0.52 nM
same,IC50,[6],12.9 nM
same,Wt. Ch. (Day 7),"[8]; 2.5 mg/kg, q.d. × 5, i.p.",0.95%
same,IC50,[9],6 nM
O=P1(N(CCCl)CCCl)NCCCO1 (centres unmarked) [Cytoxan],Wt. Ch. (Day 7),"[8]; 300 mg/kg, q.d. × 1, i.p.",-6.6%
O=C1c2c(O)cccc2-c2nn(CCNCCO)c3ccc(NCCNCCO)c1c23 [DuP 941],clinical anti-tumor activity,[10],exhibit clinical anti-tumor activity
CN(C)CCN1C(=O)c2cccc3cc(N)cc(c23)C1=O [amonafide],intercalator-stabilized-topoisomerase II-DNA cleavable complex formation,[11],result in intercalator-stabilized-topoisomerase II-DNA cleavable complex formation
same,topoisomerase II inhibition,[11],inhibit topoisomerase II
COc1cc(NS(C)(=O)=O)ccc1Nc1c2ccccc2nc2ccccc12 [amsacrine],clinical anti-tumor activity,[10],exhibit clinical anti-tumor activity
COc1cccc2c1C(=O)c1c(O)c3c(c(O)c1C2=O)C[C@@](O)(C(C)=O)C[C@@H]3O[C@H]1C[C@H](N)[C@H](O)[C@H](C)O1 [daunorubicin],cardiomyopathy,"[12]; human, in vivo",limited by an unusual cardiomyopathy
COc1cccc2c1C(=O)c1c(O)c3c(c(O)c1C2=O)C[C@@](O)(C(=O)CO)C[C@@H]3O[C@H]1C[C@H](N)[C@H](O)[C@H](C)O1 [doxorubicin],cardiomyopathy,"[12]; Calabresi and Chabner, 1990",limited by an unusual cardiomyopathy
O=C1c2c(O)ccc(O)c2C(=O)c2c(NCCNCCO)ccc(NCCNCCO)c21 [mitoxantrone],clinical anti-tumor activity,[10],exhibit clinical anti-tumor activity
